Measured values as given in patent publication US20110092486A1, “IH CHANNEL INHIBITORS FOR THE PROMOTION OF WAKEFULNESS” (priority 2006, published 2011).
Read-outs that look alike come from different tables or passages of the source. Marks after values point to notes of the source that are not given here.

Experiments:
hHCN1 = target: T1, hHCN1 (Homo sapiens, UniProt O60741); assay: Determination of Ih channel inhibition, time-dependent current in HEK.hHCN1.2H10 cells; assay type: cell-based; details: holding potential −40 mV
T1 construct: expressed in transfected cells; host or cells: HEK cells, clone HEK.hHCN1.2H10
T1 sequence (O60741 1-890): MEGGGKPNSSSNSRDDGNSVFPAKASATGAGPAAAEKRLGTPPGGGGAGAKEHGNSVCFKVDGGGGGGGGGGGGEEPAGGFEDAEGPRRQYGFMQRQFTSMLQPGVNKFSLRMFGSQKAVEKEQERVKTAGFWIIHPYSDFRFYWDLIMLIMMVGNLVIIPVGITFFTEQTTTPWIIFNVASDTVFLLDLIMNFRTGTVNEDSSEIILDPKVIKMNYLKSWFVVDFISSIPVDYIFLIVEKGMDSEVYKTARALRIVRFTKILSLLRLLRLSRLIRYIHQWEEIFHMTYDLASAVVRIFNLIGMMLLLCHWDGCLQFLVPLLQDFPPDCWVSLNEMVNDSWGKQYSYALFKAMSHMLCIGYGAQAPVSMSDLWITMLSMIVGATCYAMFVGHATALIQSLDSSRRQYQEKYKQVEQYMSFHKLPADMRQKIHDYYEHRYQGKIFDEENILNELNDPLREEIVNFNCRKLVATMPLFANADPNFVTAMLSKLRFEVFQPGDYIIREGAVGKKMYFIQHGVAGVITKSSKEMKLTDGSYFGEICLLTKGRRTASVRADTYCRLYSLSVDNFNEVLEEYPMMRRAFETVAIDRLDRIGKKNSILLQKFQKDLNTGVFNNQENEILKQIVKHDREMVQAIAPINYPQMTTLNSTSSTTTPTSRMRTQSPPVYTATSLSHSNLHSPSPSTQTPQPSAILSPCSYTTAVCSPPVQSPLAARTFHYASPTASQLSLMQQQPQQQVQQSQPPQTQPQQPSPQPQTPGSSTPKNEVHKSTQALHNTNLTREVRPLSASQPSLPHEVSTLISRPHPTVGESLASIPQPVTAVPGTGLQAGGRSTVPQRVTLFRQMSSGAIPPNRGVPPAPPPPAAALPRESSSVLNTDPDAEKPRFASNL
Experimental: Methods: HEK.hHCN1.2H10 cells growing in culture were dissociated using CDS to lift the cells. They were suspended in high K external solution and used in the assay at a density of 2×10^6 cells.ml^−1. Two separate runs were performed with voltage steps to −80 mV and […] for 1 s; the holding potential in both cases was −40 mV. The amplitude of the time-dependent current (assumed to be all hHCN1) was measured as the difference between the current recorded immediately after the capacity transient on stepping to the test voltage and the current measured after it had reached a steady state amplitude (PeakAmp metric). The amount of inhibition was assessed by calculating the ratio of Post Compound PeakAmp/Pre Compound PeakAmp. Thus a ratio of 1 would indicate no inhibition and 0 would indicate 100% inhibition. Compounds were tested at concentrations between 0.152 μM and 333.3 μM, and a dose-response curve constructed. The IC50 value was obtained (the concentration causing half maximal inhibition) and the pIC50 calculated (the negative logarithm of the molar concentration causing half-maximal inhibition).

[1] = system: sleep-wake organisation in the rat; assay: Effect of Ih channel inhibition on sleep-wake organisation in rats (ACSO, EEG/EMG/movement); assay type: in vivo
Experimental: Methods: Sleep-wake organization was evaluated in instrumented male rats held on a 12:12 light-dark cycle. Classification of sleep-wake states was measured using an automated system (ACSO, Automatic Classification of Sleep Organization)^[i,ii] that records and processes EEG (cortical), EMG (neck muscle) and movement signals. Subjects were assigned to placebo, Org 34167 or ivabradine treatment groups and signals were recorded on two successive days. The first recording session provided a baseline recording following treatment with placebo only. This baseline day was used to extract a sleep classification algorithm for each individual subject. On the second day recording was started immediately after administration of placebo, Org 34167 (i.p.) or ivabradine (s.c.). Treatments were administered 2.5-3.0 h after lights-on. Data analysis and statistics: EEG, EMG and movement signals were used to classify every 2 second epoch into 6 different sleep stages using the algorithm derived for each individual subject from the baseline day recording. Six sleep-wake states were discriminated—Active waking (AW), Passive waking (PW), Light sleep (LS), Deep sleep (DS), Intermediate sleep (IS) and Rapid Eye Movement sleep (REM). Subsets of the six sleep-wake states were also combined to give Waking (PW and AW), Sleep (IS, REM, LS and DS) and NREM (LS and DS). For each treatment group, the median percentage of time spent in each sleep or waking state were calculated in 3 hour time intervals after drug injection. Significance was calculated by means of the two-sided rank sum test (Mann-Whitney test; P<0.025).

Ih channel = Ih channel inhibition, statement without method
[2] = 0.3 mg/kg i.p., 0-3 h, lights on
[3] = 0.3 mg/kg i.p., 3-6 h, lights on
[4] = 0.3 mg/kg i.p., 6-9 h, lights on
[5] = 0.3 mg/kg i.p., 9-12 h, lights off
[6] = 1 mg/kg i.p., 9-12 h, lights off
[7] = 5 mg/kg s.c., 9-12 h, lights off
[8] = 15 mg/kg s.c., 0-3 h, lights on
[9] = 15 mg/kg s.c., 3-6 h, lights on
[10] = 15 mg/kg s.c., 6-9 h, lights on
[11] = 15 mg/kg s.c., 9-12 h, lights off
[12] = 50 mg/kg s.c., 0-3 h, lights on
[13] = 50 mg/kg s.c., 3-6 h, lights on
[14] = 50 mg/kg s.c., 6-9 h, lights on
[15] = 50 mg/kg s.c., 9-12 h, lights off

With `C=CC[C@H](N)c1ccccc1-c1noc2ccccc12.Cl` [Org 34167, (S)-2-(1,2-benzisoxazol-3-yl)-α-2-propenylbenzenemethanamine hydrochloride] the IC50 (hHCN1; voltage step to −80 mV for 1 s, read-out: IC50 μM −80 mV) was 3.2 µM, the IC50 (hHCN1; voltage step to −120 mV for 1 s, read-out: IC50 μM −120 mV) was 8.6 µM and the “median percentage of time spent in NREM” value [1, 2] was 46.4* %. For the same compound, the “median percentage of time spent in Sleep” value [1, 2] was 54.1* %, the “median percentage of time spent in Waking” value [1, 2] was 45.9* % and the “median percentage of time spent in NREM” value [1, 3] was 63.5%. The “median percentage of time spent in Sleep” value [1, 3] was 80.4%, the “median percentage of time spent in Waking” value [1, 3] was 19.6% and the “median percentage of time spent in NREM” value [1, 4] was 63.8%. For the same compound, the “median percentage of time spent in Sleep” value [1, 4] was 77.9%, the “median percentage of time spent in Waking” value [1, 4] was 22.1% and the “median percentage of time spent in NREM” value [1, 5] was 40.9%. The “median percentage of time spent in Sleep” value [1, 5] was 47.3%, the “median percentage of time spent in Waking” value [1, 5] was 52.7% and the “median percentage of time spent in NREM” value ([1]; 1 mg/kg i.p., 0-3 h, lights on) was 7.6* %. For the same compound, the “median percentage of time spent in Sleep” value ([1]; 1 mg/kg i.p., 0-3 h, lights on) was 7.6* %, the “median percentage of time spent in Waking” value ([1]; 1 mg/kg i.p., 0-3 h, lights on) was 92.4* % and the “median percentage of time spent in NREM” value ([1]; 1 mg/kg i.p., 3-6 h, lights on) was 59.1* %. For the same compound, the “median percentage of time spent in Sleep” value ([1]; 1 mg/kg i.p., 3-6 h, lights on) was 64.2* %, the “median percentage of time spent in Waking” value ([1]; 1 mg/kg i.p., 3-6 h, lights on) was 35.8* % and the “median percentage of time spent in NREM” value ([1]; 1 mg/kg i.p., 6-9 h, lights on) was 63.9* %. For the same compound, the “median percentage of time spent in Sleep” value ([1]; 1 mg/kg i.p., 6-9 h, lights on) was 81.2%, the “median percentage of time spent in Waking” value ([1]; 1 mg/kg i.p., 6-9 h, lights on) was 18.8% and the “median percentage of time spent in NREM” value [1, 6] was 42.1%. The “median percentage of time spent in Sleep” value [1, 6] was 51.8%, the “median percentage of time spent in Waking” value [1, 6] was 48.2% and the “effect on waking and sleep compared to placebo” value ([1]; Org 34167 i.p., first 3-6 hours of the session) was “dose dependently increased waking and decreased sleep”.
For `COc1cc2c(cc1OC)CC(=O)N(CCCN(C)C[C@H]1Cc3cc(OC)c(OC)cc31)CC2.Cl` [ivabradine, (+)-3-[3-[N-[4,5-dimethoxybenzocyclobutan-1-(S)-ylmethyl]-N-methylamino]propyl]-7,8-dimethoxy-2,3,4,5-tetrahydro-1H-3-benzazepin-2-one hydrochloride], the “median percentage of time spent in NREM” value ([1]; 5 mg/kg s.c., 0-3 h, lights on) was 49.5%, the “median percentage of time spent in Sleep” value ([1]; 5 mg/kg s.c., 0-3 h, lights on) was 58.2% and the “median percentage of time spent in Waking” value ([1]; 5 mg/kg s.c., 0-3 h, lights on) was 41.8%. For the same compound, the “median percentage of time spent in NREM” value ([1]; 5 mg/kg s.c., 3-6 h, lights on) was 68.9%, the “median percentage of time spent in Sleep” value ([1]; 5 mg/kg s.c., 3-6 h, lights on) was 84.8% and the “median percentage of time spent in Waking” value ([1]; 5 mg/kg s.c., 3-6 h, lights on) was 15.2%. For the same compound, the “median percentage of time spent in NREM” value ([1]; 5 mg/kg s.c., 6-9 h, lights on) was 56.2%, the “median percentage of time spent in Sleep” value ([1]; 5 mg/kg s.c., 6-9 h, lights on) was 72.9% and the “median percentage of time spent in Waking” value ([1]; 5 mg/kg s.c., 6-9 h, lights on) was 27.1%. The “median percentage of time spent in NREM” value [1, 7] was 39.5%, the “median percentage of time spent in Sleep” value [1, 7] was 50.4% and the “median percentage of time spent in Waking” value [1, 7] was 49.6%. For the same compound, the “median percentage of time spent in NREM” value [1, 8] was 53.2%, the “median percentage of time spent in Sleep” value [1, 8] was 60.1* % and the “median percentage of time spent in Waking” value [1, 8] was 39.9* %. For the same compound, the “median percentage of time spent in NREM” value [1, 9] was 65.8%, the “median percentage of time spent in Sleep” value [1, 9] was 83.0% and the “median percentage of time spent in Waking” value [1, 9] was 17.0%. The “median percentage of time spent in NREM” value [1, 10] was 60.0%, the “median percentage of time spent in Sleep” value [1, 10] was 72.5% and the “median percentage of time spent in Waking” value [1, 10] was 27.5%. The “median percentage of time spent in NREM” value [1, 11] was 37.4%, the “median percentage of time spent in Sleep” value [1, 11] was 45.2% and the “median percentage of time spent in Waking” value [1, 11] was 54.8%. For the same compound, the “median percentage of time spent in NREM” value [1, 12] was 41.4%, the “median percentage of time spent in Sleep” value [1, 12] was 42.2* % and the “median percentage of time spent in Waking” value [1, 12] was 57.8* %. For the same compound, the “median percentage of time spent in NREM” value [1, 13] was 63.2%, the “median percentage of time spent in Sleep” value [1, 13] was 80.4% and the “median percentage of time spent in Waking” value [1, 13] was 19.6%. For the same compound, the “median percentage of time spent in NREM” value [1, 14] was 65.0%, the “median percentage of time spent in Sleep” value [1, 14] was 81.0% and the “median percentage of time spent in Waking” value [1, 14] was 19.0%. For the same compound, the “median percentage of time spent in NREM” value [1, 15] was 45.8* %, the “median percentage of time spent in Sleep” value [1, 15] was 57.9* % and the “median percentage of time spent in Waking” value [1, 15] was 42.1* %. For the same compound, the “effect on waking and sleep compared to placebo” value ([1]; ivabradine s.c., first 3 hours of the session) was “dose dependently increased waking and decreased sleep”.
For `NC(=O)C[S+]([O-])C(c1ccccc1)c1ccccc1` (centres unmarked) [modafanil], the “Ih channel inhibitor or not” value (Ih channel) was “not to be an Ih channel inhibitor”.
